Where two headings read alike, the source gives them in different places.
Legend:
LAT1 [1] = conditions: human colon cancer (HT-29) cells; cited from earlier work
LAT1 [2] = conditions: S2 cells; cited from earlier work
cancer growth = test system: cancer growth; design: method as in PMID 21187458, PMID 18520037, PMID 18813831; conditions: cited from earlier work
recombinant human LAT1 [3] = biological target: T1, recombinant human LAT1 (Homo sapiens, UniProt Q01650); assay: Inhibition of LAT1 mediated [3H]-His transport in proteoliposomes reconstituted with recombinant purified human LAT1; format: biochemical; conditions: 100 µM concentration, n = 3, Table S6
T1 construct: made in house; host or cells: E. coli
T1 sequence (Q01650 whole entry): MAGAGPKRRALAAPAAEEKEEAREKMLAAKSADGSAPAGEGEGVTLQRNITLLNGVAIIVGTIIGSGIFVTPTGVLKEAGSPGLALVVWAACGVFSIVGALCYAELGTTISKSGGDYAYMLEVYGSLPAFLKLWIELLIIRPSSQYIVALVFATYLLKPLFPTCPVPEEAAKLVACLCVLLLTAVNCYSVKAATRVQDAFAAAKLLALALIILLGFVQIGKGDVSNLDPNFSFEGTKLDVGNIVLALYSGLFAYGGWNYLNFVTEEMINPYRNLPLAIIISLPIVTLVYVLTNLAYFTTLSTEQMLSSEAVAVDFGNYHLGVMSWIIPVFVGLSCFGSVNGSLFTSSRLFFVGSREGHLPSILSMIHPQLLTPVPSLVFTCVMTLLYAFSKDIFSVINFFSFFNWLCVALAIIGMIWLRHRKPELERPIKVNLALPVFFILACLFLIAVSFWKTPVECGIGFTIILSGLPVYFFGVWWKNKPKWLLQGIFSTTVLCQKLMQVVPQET
Method: All 30 compounds were evaluated for their potency to inhibit LAT1 mediated histidine transport in proteoliposomes reconstituted with recombinant purified human LAT1 (see Methods). […]
Human LAT1 was over-expressed in E. coli and was purified as previously described. In brief, solubilized cell lysate was centrifuged (12,000× g, 10 min, 4 °C); supernatant was applied on a His-Trap HP column (5 mL Ni Sepharose) connected to ÄKTA start system. The column was equilibrated with 10 mL buffer (20 mM Tris HCl pH 8.0, 10% glycerol, 200 mM NaCl, 0.1% sarkosyl) prior to supernatant application. The column was washed with 10 mL buffer (20 mM Tris HCl pH 8.0, 10% glycerol, 200 mM NaCl, 0.05% DDM, and 2 mM DTE) and the protein was eluted with the same buffer plus 400 mM imidazole. Purified protein was desalted, in order to remove imidazole, using a PD-10 column in a buffer containing 20 mM Tris HCl pH 8.0, 10% glycerol, 0.05% DDM and 10 mM DTE.
The purified human LAT1 was reconstituted by detergent removal approach using the batch-wise method, as previously described. In brief, the initial mixture contained: 4 μg of purified protein, 100 μL of 10% C12E8, 100 μL of 10% egg yolk phospholipids (w/v) in the form of liposomes that were prepared as previously described, 20 mM Tris HCl pH 7.5, and 10 mM L-His in a final volume of 700 μL. This mixture was incubated with 0.5 g of Amberlite XAD-4 for 90 min at 23 °C, 1200 rpm to retain detergent.
To perform transport assays, the external substrate was removed by gel filtration chromatography: 600 μL of proteoliposomes were passed through a Sephadex G-75 column (0.7 cm diameter × 15 cm height) pre-equilibrated with 20 mM Tris HCl pH 7.5 and a concentration of sucrose to balance internal osmolarity. Transport was started adding 5 μM [^3H]-His to proteoliposomes and stopped after 30 min according to the stop inhibitor method, as previously described. In brief, in controls 1.5 µM HgCl2 was added at time zero and radioactivity was subtracted to samples for calculating net transport. After stopping the transport reaction, 100 μL of proteoliposomes was subjected to gel filtration chromatography using a Sephadex G-75 column (0.6 cm diameter × 8 cm height), to separate the external from the internal radioactivity. Proteoliposomes were eluted with 1 mL 50 mM NaCl in 4 mL scintillation mixture and counted. […] Protein concentration was estimated by Chemidoc imaging system1 [104] to calculate the human LAT1 specific activity.

recombinant human LAT1 [4] = biological target: T1, recombinant human LAT1; conditions: same test system, determined previously; cited from earlier work

Compound | IC50 (LAT1 [1]) | IC50 (LAT1 [2]) | concentration required to attain antiproliferative effects (cancer growth) | % Residual Activity (recombinant human LAT1 [3]) | IC50 (recombinant human LAT1 [4])
Nc1cc(COc2c(Cl)cc(C[C@H](N)C(=O)O)cc2Cl)c2oc(-c3ccccc3)nc2c1 [Compound 2] | 60 nM | 140 nM |  |  | 
NC1(C(=O)O)CC2CCC1C2 (centres unmarked) [Compound 1, 2-Amino-2-norbornanecarboxylic acid] |  |  | > 10 mM | 6.1% | 6.8 ± 0.27 µM

Reference: paper PMC6337383, “Discovery of Potent Inhibitors for the Large Neutral Amino Acid Transporter 1 (LAT1) by Structure-Based Methods” (International Journal of Molecular Sciences, 2018)
